Measurements published in paper PMC12728655, “Engineering an Artificial Myxopyronin Derivative with Enhanced Metabolic Stability via Mutasynthesis” (JACS Au, 2025).
Values after ≈ are worked out from the molar mass of the structure shown.

Each molecule was assayed on Rif^R-M. tuberculosis H37Rv (assay: microbe, parasite or virus in culture). Conditions: Mycobacterium tuberculosis.
Assay type: cell-based

SMILES	MIC
COC(=O)N/C=C/CC[C@@H](C)c1cc(O)c(C(=O)/C(C)=C/C=C(\C)CCC(F)(F)F)c(=O)o1 [MYX (8)]	1 µg/mL (≈ 2.12 µM)
CCC/C(C)=C/C=C(\C)C(=O)c1c(O)cc([C@H](C)CC/C=C/NC(=O)OC)oc1=O [MYX A (1), myxopyronins A]	2 to 4 µg/mL (≈ 4.79 to 9.58 µM)
CO[C@H]1/C=C/O[C@@]2(C)Oc3c(C)c(O)c4c(O)c(c(/C=N/N5CCN(C)CC5)c(O)c4c3C2=O)NC(=O)/C(C)=C\C=C\[C@H](C)[C@H](O)[C@@H](C)[C@@H](O)[C@@H](C)[C@H](OC(C)=O)[C@@H]1C [rifampin]	> 64 µg/mL
